Read-outs that look alike come from different tables or passages of the source.
How the values were obtained:
CDK17/Cyclin Y = CDK17/Cyclin Y (Homo sapiens, UniProt Q00537); experiment: NanoBRET live-cell target engagement, CDK17-NanoLuc/Cyclin Y in HEK-293; assay type: binding; conditions: CDK17/Y
CDK18/Cyclin Y = CDK18/Cyclin Y (Homo sapiens, UniProt Q07002); experiment: NanoBRET live-cell target engagement, CDK18-NanoLuc/Cyclin Y in HEK-293; assay type: binding; conditions: CDK18/Y
CDK13/Cyclin K = CDK13/Cyclin K (Homo sapiens, UniProt Q14004); experiment: NanoBRET live-cell target engagement, CDK13-NanoLuc/Cyclin K in HEK-293; assay type: binding; conditions: CDK13/K, 10µM
CDK11B/Cyclin L2 = CDK11B/Cyclin L2 (Homo sapiens, UniProt P21127); experiment: NanoBRET live-cell target engagement, CDK11B-NanoLuc/Cyclin L2 in HEK-293; assay type: binding; conditions: CDK11b/L2, 10µM
CDK9/Cyclin K = CDK9/Cyclin K (Homo sapiens, UniProt P50750); experiment: NanoBRET live-cell target engagement, NanoLuc-CDK9/Cyclin K in HEK-293; assay type: binding; conditions: CDK9/K, 10µM
CDK15/Cyclin Y = CDK15/Cyclin Y (Homo sapiens, UniProt Q96Q40); experiment: NanoBRET live-cell target engagement, NanoLuc-CDK15/Cyclin Y in HEK-293; assay type: binding; conditions: CDK15/Y
CDK4/Cyclin D1 = CDK4/Cyclin D1 (Homo sapiens, UniProt P11802); experiment: NanoBRET live-cell target engagement, NanoLuc-CDK4/Cyclin D1 in HEK-293; assay type: binding; conditions: CDK4/D1
CDK20/Cyclin H = CDK20/Cyclin H (Homo sapiens, UniProt Q8IZL9); experiment: NanoBRET live-cell target engagement, NanoLuc-CDK20/Cyclin H in HEK-293; assay type: binding; conditions: CDK20/H; 10µM
CDK19/Cyclin C = CDK19/Cyclin C (Homo sapiens, UniProt Q9BWU1); experiment: NanoBRET live-cell target engagement, NanoLuc-CDK19/Cyclin C in HEK-293
CDK16/Cyclin Y = CDK16/Cyclin Y (Homo sapiens, UniProt Q00536); experiment: NanoBRET live-cell target engagement, CDK16-NanoLuc/Cyclin Y in HEK-293; assay type: binding; conditions: CDK16/Y
CDK10/Cyclin L2 = CDK10/Cyclin L2 (Homo sapiens, UniProt Q15131); experiment: NanoBRET live-cell target engagement, CDK10-NanoLuc/Cyclin L2 in HEK-293; conditions: CDK10/L2; 10µM
[1] = n=3 average ± SEM, n=2 average to 2 significant figures, read-out: IC50 (nM) Average*
[2] = read-out: IC50 (nM) Replicate 1
[3] = read-out: IC50 (nM) Replicate 2

Chain of CDK17/Cyclin Y (Q00537 whole entry): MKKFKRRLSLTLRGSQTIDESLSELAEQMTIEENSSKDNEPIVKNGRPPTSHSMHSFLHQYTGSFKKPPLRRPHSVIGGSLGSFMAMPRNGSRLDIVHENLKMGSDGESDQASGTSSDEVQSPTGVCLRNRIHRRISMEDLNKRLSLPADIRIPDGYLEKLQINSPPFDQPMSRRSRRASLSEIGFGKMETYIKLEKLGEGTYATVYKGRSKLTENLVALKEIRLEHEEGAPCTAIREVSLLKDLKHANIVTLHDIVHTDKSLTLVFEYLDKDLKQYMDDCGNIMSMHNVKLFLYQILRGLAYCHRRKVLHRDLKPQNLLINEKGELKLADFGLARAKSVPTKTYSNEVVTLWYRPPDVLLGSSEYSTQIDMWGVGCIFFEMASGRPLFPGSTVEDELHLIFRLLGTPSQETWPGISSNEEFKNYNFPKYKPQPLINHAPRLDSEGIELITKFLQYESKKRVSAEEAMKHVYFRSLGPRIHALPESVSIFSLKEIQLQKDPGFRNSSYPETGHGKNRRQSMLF
Chain of CDK17/Cyclin Y (Q8ND76 whole entry partner): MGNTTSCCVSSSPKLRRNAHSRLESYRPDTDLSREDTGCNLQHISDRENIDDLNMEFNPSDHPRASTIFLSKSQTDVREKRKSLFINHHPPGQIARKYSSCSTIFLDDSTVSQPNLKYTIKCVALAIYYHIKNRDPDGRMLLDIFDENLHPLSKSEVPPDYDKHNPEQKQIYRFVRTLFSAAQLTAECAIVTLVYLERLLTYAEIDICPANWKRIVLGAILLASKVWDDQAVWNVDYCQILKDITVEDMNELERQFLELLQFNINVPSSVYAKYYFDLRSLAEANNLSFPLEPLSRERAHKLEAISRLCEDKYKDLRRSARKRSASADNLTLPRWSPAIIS
Chain of CDK19/Cyclin C (Q9BWU1 whole entry): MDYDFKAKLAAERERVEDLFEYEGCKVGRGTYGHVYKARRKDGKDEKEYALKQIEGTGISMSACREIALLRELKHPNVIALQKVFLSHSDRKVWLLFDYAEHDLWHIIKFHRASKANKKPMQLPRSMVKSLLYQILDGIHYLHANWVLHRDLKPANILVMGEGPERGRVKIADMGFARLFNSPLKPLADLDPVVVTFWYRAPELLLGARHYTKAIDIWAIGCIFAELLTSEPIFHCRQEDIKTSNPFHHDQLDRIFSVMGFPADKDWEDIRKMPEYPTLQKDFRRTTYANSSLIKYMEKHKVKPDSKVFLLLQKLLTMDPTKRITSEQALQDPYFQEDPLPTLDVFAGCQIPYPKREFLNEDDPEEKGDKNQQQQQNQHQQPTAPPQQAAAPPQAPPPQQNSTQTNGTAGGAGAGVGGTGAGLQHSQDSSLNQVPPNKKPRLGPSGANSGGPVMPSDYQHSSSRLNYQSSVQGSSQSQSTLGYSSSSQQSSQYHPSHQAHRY
Chain of CDK19/Cyclin C (P24863 whole entry partner): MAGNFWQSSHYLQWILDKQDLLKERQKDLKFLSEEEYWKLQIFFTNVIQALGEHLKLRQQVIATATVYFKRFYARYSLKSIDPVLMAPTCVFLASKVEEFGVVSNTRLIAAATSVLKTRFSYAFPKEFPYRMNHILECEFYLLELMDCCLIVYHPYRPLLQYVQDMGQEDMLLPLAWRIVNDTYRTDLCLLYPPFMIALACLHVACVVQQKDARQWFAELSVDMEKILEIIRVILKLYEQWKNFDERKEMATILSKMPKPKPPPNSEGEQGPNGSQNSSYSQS
Chain of CDK9/Cyclin K (P50750 whole entry): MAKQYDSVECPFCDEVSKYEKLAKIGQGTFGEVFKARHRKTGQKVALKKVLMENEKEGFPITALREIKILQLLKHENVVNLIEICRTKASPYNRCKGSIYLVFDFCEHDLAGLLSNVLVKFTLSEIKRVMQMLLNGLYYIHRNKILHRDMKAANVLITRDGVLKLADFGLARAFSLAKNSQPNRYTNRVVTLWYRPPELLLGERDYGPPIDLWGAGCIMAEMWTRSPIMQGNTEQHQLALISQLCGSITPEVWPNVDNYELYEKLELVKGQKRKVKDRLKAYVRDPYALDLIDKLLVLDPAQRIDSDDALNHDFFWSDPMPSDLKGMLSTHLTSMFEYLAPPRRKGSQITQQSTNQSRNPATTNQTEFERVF
Chain of CDK9/Cyclin K (O75909 whole entry partner): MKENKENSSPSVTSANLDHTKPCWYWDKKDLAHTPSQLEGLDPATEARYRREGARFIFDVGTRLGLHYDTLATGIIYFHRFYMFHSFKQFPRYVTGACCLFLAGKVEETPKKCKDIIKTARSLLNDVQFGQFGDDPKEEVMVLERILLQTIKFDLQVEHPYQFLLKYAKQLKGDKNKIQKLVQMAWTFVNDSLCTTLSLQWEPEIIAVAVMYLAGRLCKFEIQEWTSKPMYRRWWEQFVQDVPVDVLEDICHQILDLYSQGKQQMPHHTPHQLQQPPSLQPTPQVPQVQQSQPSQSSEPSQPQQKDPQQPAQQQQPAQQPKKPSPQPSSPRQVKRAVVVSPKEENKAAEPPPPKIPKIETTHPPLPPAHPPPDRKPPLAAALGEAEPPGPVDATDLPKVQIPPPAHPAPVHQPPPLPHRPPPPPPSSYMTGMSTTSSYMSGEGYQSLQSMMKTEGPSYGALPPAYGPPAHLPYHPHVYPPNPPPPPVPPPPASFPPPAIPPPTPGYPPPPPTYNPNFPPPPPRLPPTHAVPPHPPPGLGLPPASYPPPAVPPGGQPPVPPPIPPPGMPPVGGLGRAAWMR
Chain of CDK16/Cyclin Y (Q00536 whole entry): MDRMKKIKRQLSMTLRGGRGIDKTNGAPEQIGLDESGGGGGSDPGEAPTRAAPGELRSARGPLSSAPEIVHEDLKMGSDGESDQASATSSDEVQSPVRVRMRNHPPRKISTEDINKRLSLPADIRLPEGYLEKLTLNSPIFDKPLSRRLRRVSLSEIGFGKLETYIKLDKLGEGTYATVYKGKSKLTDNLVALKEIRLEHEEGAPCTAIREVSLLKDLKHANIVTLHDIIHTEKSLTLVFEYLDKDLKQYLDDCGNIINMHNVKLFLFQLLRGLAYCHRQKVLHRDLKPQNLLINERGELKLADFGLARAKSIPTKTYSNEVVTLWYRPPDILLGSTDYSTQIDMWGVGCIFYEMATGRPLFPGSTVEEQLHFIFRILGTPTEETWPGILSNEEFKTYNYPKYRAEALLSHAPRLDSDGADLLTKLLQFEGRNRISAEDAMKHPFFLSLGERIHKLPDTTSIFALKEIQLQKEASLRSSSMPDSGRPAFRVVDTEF
Chain of CDK16/Cyclin Y (Q8ND76 whole entry partner): as the sequence (Q8ND76 whole entry partner) above
Chain of CDK15/Cyclin Y (Q96Q40 whole entry): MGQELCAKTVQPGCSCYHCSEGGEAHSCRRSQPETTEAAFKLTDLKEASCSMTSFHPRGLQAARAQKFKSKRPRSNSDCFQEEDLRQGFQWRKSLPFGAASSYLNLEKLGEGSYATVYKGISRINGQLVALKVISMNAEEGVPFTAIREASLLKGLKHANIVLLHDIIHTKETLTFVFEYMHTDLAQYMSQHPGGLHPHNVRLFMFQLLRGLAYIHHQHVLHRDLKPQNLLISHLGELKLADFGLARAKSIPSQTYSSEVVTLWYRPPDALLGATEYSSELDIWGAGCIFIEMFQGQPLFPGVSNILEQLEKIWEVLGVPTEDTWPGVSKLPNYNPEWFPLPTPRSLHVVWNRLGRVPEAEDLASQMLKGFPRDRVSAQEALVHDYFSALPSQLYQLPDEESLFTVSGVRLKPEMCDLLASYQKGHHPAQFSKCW
Chain of CDK15/Cyclin Y (Q8ND76 whole entry partner): as the sequence (Q8ND76 whole entry partner) above
Chain of CDK11B/Cyclin L2 (P21127 1-782 isoform P21127-2): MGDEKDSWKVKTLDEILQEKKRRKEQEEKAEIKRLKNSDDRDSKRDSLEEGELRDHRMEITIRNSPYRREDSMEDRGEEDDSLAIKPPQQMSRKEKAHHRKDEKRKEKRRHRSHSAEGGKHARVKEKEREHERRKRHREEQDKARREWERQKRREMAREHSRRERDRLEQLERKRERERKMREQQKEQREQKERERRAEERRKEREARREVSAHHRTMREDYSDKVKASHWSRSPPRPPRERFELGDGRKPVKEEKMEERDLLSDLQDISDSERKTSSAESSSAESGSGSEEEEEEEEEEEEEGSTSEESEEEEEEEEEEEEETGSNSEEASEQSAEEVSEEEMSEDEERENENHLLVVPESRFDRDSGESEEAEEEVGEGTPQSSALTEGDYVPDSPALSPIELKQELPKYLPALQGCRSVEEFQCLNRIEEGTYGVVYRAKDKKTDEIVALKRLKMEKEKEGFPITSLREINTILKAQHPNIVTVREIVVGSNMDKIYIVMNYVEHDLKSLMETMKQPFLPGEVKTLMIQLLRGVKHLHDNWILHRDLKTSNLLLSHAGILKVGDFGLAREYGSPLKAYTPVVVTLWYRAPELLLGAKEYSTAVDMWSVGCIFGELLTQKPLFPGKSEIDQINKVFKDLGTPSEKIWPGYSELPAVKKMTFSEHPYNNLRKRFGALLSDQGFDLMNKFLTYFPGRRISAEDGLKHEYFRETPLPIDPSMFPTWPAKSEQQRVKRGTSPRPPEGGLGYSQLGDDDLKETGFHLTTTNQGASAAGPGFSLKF
Chain of CDK18/Cyclin Y (Q07002 whole entry): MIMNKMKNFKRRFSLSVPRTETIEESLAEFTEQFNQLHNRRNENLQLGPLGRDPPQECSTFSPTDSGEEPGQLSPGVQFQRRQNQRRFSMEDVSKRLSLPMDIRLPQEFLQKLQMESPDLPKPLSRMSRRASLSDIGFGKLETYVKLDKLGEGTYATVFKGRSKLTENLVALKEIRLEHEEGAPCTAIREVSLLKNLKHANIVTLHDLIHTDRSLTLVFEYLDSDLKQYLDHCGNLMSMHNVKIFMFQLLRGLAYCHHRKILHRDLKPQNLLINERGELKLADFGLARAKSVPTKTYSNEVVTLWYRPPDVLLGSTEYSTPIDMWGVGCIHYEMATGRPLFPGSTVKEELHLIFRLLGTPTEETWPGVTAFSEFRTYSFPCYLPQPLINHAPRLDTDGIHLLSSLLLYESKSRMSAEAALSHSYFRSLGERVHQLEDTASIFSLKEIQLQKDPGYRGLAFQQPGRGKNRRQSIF
Chain of CDK18/Cyclin Y (Q8ND76 whole entry partner): as the sequence (Q8ND76 whole entry partner) above

CNC1CCN(C(=O)c2ccc(Nc3ncc(F)c(-c4cnc(C)n4C(C)C)n3)cc2)C1 (centres unmarked) [AZD5597]
Inhibition at 10µM (%) Replicate 1 (CDK17/Cyclin Y; 10µM): 90.9%
Inhibition at 10µM (%) Replicate 2 (CDK17/Cyclin Y; 10µM): 91.8%
Inhibition at 10µM (%) Average (CDK17/Cyclin Y; 10µM, average of replicates): 91.3%
IC50 (CDK17/Cyclin Y; [1]): 10 nM
IC50 (CDK17/Cyclin Y; [2]): 6.5 nM
IC50 (CDK17/Cyclin Y; [3]): 13 nM
Inhibition at 10µM (%) Replicate 1 (CDK18/Cyclin Y; 10µM): 94.0%
Inhibition at 10µM (%) Replicate 2 (CDK18/Cyclin Y; 10µM): 101.0%
Inhibition at 10µM (%) Average (CDK18/Cyclin Y; 10µM, average of replicates): 97.5%
IC50 (CDK18/Cyclin Y; [1]): 130 nM
IC50 (CDK18/Cyclin Y; [2]): 86 nM
IC50 (CDK18/Cyclin Y; [3]): 174 nM
Inhibition at 10µM (%) Replicate 1 (CDK13/Cyclin K): 42.5%
Inhibition at 10µM (%) Replicate 2 (CDK13/Cyclin K): 57.5%
Inhibition at 10µM (%) Average (CDK13/Cyclin K; average of replicates): 50.0%
Inhibition at 10µM (%) Replicate 1 (CDK11B/Cyclin L2): 88.8%
Inhibition at 10µM (%) Replicate 2 (CDK11B/Cyclin L2): 88.6%
Inhibition at 10µM (%) Average (CDK11B/Cyclin L2; average of replicates): 88.7%
Inhibition at 10µM (%) Replicate 1 (CDK9/Cyclin K): 98.2%
Inhibition at 10µM (%) Replicate 2 (CDK9/Cyclin K): 100.7%
Inhibition at 10µM (%) Average (CDK9/Cyclin K; average of replicates): 99.5%
Inhibition at 10µM (%) Replicate 1 (CDK15/Cyclin Y; 10µM): 93.9%
Inhibition at 10µM (%) Replicate 2 (CDK15/Cyclin Y; 10µM): 95.6%
Inhibition at 10µM (%) Average (CDK15/Cyclin Y; 10µM, average of replicates): 94.7%
IC50 (CDK15/Cyclin Y; [1]): 300 nM
IC50 (CDK15/Cyclin Y; [2]): 250 nM
IC50 (CDK15/Cyclin Y; [3]): 350 nM
Inhibition at 10µM (%) Replicate 1 (CDK4/Cyclin D1; 10µM): 101.0%
Inhibition at 10µM (%) Replicate 2 (CDK4/Cyclin D1; 10µM): 98.2%
Inhibition at 10µM (%) Average (CDK4/Cyclin D1; 10µM, average of replicates): 99.6%
IC50 (CDK4/Cyclin D1; [1]): 7 nM
IC50 (CDK4/Cyclin D1; [2]): 7.4 nM
IC50 (CDK4/Cyclin D1; [3]): 6.6 nM
Inhibition at 10µM (%) Replicate 1 (CDK20/Cyclin H): 68.9%
Inhibition at 10µM (%) Replicate 2 (CDK20/Cyclin H): 74.8%
Inhibition at 10µM (%) Replicate 1 (CDK19/Cyclin C; CDK19/C, 10µM): 88.7%
Inhibition at 10µM (%) Replicate 2 (CDK19/Cyclin C; CDK19/C, 10µM): 89.0%
Inhibition at 10µM (%) Average (CDK19/Cyclin C; CDK19/C, 10µM, average of replicates): 88.9%
IC50 (CDK19/Cyclin C; read-out: IC50 (nM) Average*, CDK19/Y, n=3 average ± SEM, n=2 average to 2 significant figures): 240 nM
IC50 (CDK19/Cyclin C; read-out: IC50 (nM) Replicate 1, CDK19/C): 354 nM
IC50 (CDK19/Cyclin C; read-out: IC50 (nM) Replicate 2, CDK19/C): 119 nM
Inhibition at 10µM (%) Replicate 1 (CDK16/Cyclin Y; 10µM): 88.2%
Inhibition at 10µM (%) Replicate 2 (CDK16/Cyclin Y; 10µM): 91.4%
IC50 (CDK16/Cyclin Y; [1]): 13 nM
IC50 (CDK16/Cyclin Y; [2]): 8.9 nM
IC50 (CDK16/Cyclin Y; [3]): 18 nM
Inhibition at 10µM (%) Replicate 1 (CDK10/Cyclin L2): 85.6%

Source: paper PMC7265341, “Quantifying CDK inhibitor selectivity in live cells” (Nature Communications, 2020)
